Assay [1] addresses Cyclin A2-CDK2 kinase enzyme (Homo sapiens, UniProt P20248+P24941). Kind of assay: ADP-Glo Kinase Assay, screening at 0, 1 and 10 μM. The format is biochemical. The settings on record: for kinase activity reduced to: remaining CDK2 kinase activity. (ADP-Glo turns the ADP formed in a reaction into a luminescent signal.)
The target in another assay is cyclin A2-CDK2 complex (Homo sapiens, UniProt P20248+P24941). Kind of assay: dose response in the in vitro biochemical kinase assay. Particulars: 0 nM to 100 μM, room temperature.

Each structure is given as a SMILES string.

For the compound `NC(=O)c1c(Nc2ccc(Br)cc2)[nH]c(=O)[nH]c1=O` [NSC73381], the “effect on kinase activity (in words)” value in assay [1] (10 μM compound) was “weakly activated CDK2 activity”. What is called IC50 is the concentration at which inhibition is half-maximal. A low value points to inhibition by little substance. Take `N#Cc1c(N)nc(N)nc1Nc1ccc(Br)cc1` [compound 1]: the “effect on kinase activity (in words)” value in assay [1] (1 μM compound) is “no significant effect”. The “kinase activity reduced to” value in assay [1] (10 μM compound) was determined as 58%. At cyclin A2-CDK2 complex, this compound registered an IC50 of 6.5 µM. Turning to `N#Cc1c(Nc2ccc(Br)cc2)[nH]c(=O)[nH]c1=O` [NSC73380], the “effect on kinase activity (in words)” value in assay [1] (10 μM compound) was “weakly activated CDK2 activity”. Consider `NC(=S)c1cn(C2OC(CO)C(O)C2O)c2ncnc(N)c12` (centres unmarked) [compound 2], for which the “kinase activity reduced to” value in assay [1] (1 μM compound) is 43%. In assay [1] (10 μM compound), the “effect on kinase activity (in words)” value is on record as “did not further reduce the kinase activity”. The IC50 against cyclin A2-CDK2 complex came to 0.0076 µM. Turning to `CCc1c(N)nc(N)nc1Nc1ccc(Cl)c(Cl)c1` [NSC50590], the “effect on kinase activity (in words)” value in assay [1] (10 μM compound) is given as “weakly activated CDK2 activity”. In the case of `Cc1cc(Br)ccc1Nc1nc(N)nc(N)c1N=O` [NSC66578], the “effect on kinase activity (in words)” value in assay [1] (10 μM compound) is “weakly activated CDK2 activity”.

`Cc1ccc(Nc2nc(N)nc(N)c2N=O)cc1` [NSC49876]: in assay [1] (10 μM compound), the “effect on kinase activity (in words)” value is reported as “weakly activated CDK2 activity”.

Source of the values: publication PMC7326642 (Current computer-aided drug design, 2021).
